For three compounds, LogIC50, ΔTm and IC50 results are on record in ChEMBL document CHEMBL5058541, “EUbOPEN Chemogenomics Library 2 (NanoBRET)” (2022).

A word on the IC50: it is the concentration that inhibits the measured activity by half.

Test [1] concerns the target Epithelial discoidin domain-containing receptor 1 (Homo sapiens) (UniProt Q08345). In words: Cellular target engagement assay with: DDR1. The settings on record: HEK-293T, NanoBRET Ttracer Tracer K4. The arrangement: cell line HEK293T. Background: In BRET a luciferase serves as donor, and the signal depends on an acceptor being close.
The target in test [2] is T1, Discoidin domain-containing receptor 2 (Homo sapiens) (UniProt Q16832).
T1 sequence (whole entry): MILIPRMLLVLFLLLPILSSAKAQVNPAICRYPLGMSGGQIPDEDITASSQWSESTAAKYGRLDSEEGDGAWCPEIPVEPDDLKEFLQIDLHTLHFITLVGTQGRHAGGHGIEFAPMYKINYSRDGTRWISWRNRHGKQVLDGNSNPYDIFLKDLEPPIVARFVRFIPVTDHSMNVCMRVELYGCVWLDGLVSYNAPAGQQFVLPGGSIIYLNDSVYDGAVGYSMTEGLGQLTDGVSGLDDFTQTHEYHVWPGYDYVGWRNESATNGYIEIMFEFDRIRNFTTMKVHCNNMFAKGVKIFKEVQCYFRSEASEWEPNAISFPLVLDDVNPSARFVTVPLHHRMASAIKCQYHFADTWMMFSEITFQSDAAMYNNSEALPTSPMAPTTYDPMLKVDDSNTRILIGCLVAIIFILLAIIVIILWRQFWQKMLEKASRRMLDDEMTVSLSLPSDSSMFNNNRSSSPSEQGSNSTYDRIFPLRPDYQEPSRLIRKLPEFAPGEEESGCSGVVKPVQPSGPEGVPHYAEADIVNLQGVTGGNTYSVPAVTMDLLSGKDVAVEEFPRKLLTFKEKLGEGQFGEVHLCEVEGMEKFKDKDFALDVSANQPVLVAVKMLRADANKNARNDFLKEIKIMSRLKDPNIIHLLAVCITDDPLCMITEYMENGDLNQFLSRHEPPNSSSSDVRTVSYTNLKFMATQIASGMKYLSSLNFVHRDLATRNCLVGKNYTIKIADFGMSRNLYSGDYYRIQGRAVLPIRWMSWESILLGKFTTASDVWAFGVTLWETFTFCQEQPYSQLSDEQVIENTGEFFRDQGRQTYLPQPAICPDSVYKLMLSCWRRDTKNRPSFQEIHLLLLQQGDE
In words: Cellular target engagement assay with: DDR2. Details: cell line HEK293T. The conditions noted are these: HEK-293T, NanoBRET Ttracer Tracer K4.

The target in test [3] is Mitogen-activated protein kinase 11 (Homo sapiens) (UniProt Q15759). As to the kind of experiment: Cellular target engagement assay with: MAPK11. Details: cell line HEK293T. The conditions noted are these: HEK-293T, NanoBRET Ttracer Tracer K10.
Test [4] concerns the target Mitogen-activated protein kinase 14 (Homo sapiens) (UniProt Q16539). In words: Cellular target engagement assay with: MAPK14. Details: cell line HEK293T. The conditions noted are these: HEK-293T, NanoBRET Ttracer Tracer K10.
Test [5] has as its target T2, Peregrin (Homo sapiens) (UniProt P55201).
T2 sequence (whole entry): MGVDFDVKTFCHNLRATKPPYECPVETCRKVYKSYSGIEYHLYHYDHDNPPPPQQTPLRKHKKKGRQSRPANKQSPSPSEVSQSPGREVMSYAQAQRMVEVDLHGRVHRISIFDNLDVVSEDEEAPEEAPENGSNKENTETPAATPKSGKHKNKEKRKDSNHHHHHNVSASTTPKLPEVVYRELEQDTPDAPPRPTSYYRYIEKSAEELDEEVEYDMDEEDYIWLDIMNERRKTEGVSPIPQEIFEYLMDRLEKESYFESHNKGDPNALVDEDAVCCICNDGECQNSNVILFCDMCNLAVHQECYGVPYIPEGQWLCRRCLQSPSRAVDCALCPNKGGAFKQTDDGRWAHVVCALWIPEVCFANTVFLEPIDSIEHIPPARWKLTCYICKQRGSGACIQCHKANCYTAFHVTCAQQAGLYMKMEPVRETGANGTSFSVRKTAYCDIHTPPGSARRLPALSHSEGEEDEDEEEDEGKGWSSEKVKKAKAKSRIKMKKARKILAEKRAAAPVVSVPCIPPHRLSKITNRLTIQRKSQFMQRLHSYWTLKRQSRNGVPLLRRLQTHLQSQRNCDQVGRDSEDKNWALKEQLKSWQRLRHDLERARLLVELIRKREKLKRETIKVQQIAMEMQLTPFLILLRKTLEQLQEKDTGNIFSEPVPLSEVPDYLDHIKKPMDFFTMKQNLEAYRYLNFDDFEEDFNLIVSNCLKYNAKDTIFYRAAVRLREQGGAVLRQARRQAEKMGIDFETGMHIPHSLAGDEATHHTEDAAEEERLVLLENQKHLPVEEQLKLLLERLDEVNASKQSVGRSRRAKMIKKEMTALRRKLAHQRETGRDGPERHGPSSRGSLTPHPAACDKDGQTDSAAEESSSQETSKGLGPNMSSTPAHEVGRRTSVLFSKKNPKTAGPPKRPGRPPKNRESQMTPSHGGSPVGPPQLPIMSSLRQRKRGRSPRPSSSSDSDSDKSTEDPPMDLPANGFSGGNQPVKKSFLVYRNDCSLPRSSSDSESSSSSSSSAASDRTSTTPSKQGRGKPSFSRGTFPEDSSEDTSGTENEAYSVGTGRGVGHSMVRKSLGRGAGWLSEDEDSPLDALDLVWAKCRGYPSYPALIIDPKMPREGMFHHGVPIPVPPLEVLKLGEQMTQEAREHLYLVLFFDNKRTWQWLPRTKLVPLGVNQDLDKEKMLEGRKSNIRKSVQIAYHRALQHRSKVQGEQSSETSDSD
The conditions noted are these: Compound concentration 20.0 uM, Protein concentration 2.0 uM, Result type QC Liability.

The target in test [6] is Fibroblast growth factor receptor 3 (Homo sapiens) (UniProt P22607). The settings on record: Compound concentration 20.0 uM, Protein concentration 2.0 uM, Result type QC Liability.
Description: Thermal Shift Assay. Domain: start/stop: P449-E759
For test [7], the target named is T3, Peripheral plasma membrane protein CASK (Homo sapiens) (UniProt O14936).
T3 sequence (whole entry): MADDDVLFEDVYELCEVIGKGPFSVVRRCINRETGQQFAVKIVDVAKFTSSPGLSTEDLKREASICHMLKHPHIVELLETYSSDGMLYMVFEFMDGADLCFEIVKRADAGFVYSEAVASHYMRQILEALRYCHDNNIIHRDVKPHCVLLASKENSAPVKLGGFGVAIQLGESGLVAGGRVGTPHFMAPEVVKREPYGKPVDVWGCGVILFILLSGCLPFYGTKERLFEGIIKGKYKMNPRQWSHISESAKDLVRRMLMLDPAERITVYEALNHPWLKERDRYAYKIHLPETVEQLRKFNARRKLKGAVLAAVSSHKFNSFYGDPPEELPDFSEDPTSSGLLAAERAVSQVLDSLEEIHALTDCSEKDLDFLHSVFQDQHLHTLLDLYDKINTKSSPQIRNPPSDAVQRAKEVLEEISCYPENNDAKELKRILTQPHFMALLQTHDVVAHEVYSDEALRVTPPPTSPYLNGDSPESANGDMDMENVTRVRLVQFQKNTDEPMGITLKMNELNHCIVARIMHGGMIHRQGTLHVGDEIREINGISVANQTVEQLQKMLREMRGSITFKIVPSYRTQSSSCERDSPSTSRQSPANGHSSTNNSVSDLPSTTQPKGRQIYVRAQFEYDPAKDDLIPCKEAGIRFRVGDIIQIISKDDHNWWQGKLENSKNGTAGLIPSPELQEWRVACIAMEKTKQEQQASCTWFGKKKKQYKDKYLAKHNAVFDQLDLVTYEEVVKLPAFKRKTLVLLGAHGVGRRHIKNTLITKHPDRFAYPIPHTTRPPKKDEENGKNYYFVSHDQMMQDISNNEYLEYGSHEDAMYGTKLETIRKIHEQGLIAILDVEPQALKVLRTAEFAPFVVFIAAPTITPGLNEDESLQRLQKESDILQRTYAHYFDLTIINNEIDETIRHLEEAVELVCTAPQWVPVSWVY
In words: (§1) Cellular target engagement assay with: CASK. The conditions noted are these: HEK-293T, NanoBRET Ttracer Tracer K5. The arrangement: cell line HEK293T.

Test [8] concerns the target T4, Peripheral plasma membrane protein CASK (Homo sapiens, UniProt O14936).
T4 sequence (O14936 whole entry): T3 sequence (whole entry)
Described as §1. Details: species or system HEK-293T; cell line HEK293T.

In test [9] the target is T2, Peregrin (Homo sapiens). The settings on record: Compound concentration 20.0 uM, Protein concentration 2.0 uM, Result type QC Liability. This is another data set of the same source.
In test [10] the target is SRSF protein kinase 1 (Homo sapiens) (UniProt Q96SB4). The settings on record: HEK-293T, NanoBRET Ttracer MW375.
Description: Cellular target engagement assay with: SRPK1
Test [11] concerns the target SRSF protein kinase 2 (Homo sapiens) (UniProt P78362). The conditions noted are these: HEK-293T, NanoBRET Ttracer MW375.
Description: Cellular target engagement assay with: SRPK2

Molecules are shown by their SMILES.

Sequence of Fibroblast growth factor receptor 3 (Homo sapiens) (P22607 23-806 limits assumed): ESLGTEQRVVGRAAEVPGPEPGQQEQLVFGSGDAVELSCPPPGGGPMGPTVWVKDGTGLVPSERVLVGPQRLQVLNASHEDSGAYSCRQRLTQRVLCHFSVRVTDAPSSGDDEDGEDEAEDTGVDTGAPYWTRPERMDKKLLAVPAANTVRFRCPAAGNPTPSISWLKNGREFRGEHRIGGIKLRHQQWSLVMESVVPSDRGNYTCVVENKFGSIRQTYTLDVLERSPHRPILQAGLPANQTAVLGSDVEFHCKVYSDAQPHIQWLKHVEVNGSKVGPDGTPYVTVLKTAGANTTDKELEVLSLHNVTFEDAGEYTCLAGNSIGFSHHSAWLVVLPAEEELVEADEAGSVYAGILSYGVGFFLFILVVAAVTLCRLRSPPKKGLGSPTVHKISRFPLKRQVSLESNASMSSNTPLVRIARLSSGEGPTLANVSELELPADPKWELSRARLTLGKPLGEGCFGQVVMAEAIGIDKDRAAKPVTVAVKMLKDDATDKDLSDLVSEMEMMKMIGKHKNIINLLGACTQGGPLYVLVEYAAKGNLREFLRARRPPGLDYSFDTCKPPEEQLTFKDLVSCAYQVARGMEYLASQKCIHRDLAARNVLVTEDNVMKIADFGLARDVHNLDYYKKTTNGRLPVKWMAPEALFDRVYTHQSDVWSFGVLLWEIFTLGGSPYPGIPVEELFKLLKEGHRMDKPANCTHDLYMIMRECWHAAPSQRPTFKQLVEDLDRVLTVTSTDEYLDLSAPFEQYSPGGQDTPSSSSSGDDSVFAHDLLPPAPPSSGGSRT
Sequence of SRSF protein kinase 1 (Homo sapiens) (Q96SB4 whole entry): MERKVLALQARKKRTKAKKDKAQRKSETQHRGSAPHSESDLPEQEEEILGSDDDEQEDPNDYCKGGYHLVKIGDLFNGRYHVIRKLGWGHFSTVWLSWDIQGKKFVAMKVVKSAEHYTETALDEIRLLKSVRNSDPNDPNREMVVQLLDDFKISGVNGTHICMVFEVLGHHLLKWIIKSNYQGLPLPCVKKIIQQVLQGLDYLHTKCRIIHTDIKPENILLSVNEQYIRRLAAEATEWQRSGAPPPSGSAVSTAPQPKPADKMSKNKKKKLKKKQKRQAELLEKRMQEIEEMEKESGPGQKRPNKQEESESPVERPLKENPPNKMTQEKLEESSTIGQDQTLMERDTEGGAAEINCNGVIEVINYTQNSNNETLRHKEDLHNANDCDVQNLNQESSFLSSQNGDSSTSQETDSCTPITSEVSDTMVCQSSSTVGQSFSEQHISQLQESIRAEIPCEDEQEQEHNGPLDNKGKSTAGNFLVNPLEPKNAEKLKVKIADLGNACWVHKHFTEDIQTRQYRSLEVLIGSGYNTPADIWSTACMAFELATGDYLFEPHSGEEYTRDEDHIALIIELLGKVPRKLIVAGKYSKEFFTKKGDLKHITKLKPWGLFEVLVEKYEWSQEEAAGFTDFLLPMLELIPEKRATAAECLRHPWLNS
Sequence of Mitogen-activated protein kinase 11 (Homo sapiens) (Q15759 whole entry): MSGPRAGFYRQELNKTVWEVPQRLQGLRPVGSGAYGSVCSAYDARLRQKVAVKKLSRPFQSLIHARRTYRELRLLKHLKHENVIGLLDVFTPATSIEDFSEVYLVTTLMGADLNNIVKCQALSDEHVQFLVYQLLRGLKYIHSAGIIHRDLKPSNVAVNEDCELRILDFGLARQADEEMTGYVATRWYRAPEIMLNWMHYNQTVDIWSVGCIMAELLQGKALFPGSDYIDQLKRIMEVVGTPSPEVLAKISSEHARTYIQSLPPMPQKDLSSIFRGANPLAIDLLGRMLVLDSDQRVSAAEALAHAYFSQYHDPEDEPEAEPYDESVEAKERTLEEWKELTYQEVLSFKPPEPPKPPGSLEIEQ
Sequence of Epithelial discoidin domain-containing receptor 1 (Homo sapiens) (Q08345 whole entry, the tested form may be a part): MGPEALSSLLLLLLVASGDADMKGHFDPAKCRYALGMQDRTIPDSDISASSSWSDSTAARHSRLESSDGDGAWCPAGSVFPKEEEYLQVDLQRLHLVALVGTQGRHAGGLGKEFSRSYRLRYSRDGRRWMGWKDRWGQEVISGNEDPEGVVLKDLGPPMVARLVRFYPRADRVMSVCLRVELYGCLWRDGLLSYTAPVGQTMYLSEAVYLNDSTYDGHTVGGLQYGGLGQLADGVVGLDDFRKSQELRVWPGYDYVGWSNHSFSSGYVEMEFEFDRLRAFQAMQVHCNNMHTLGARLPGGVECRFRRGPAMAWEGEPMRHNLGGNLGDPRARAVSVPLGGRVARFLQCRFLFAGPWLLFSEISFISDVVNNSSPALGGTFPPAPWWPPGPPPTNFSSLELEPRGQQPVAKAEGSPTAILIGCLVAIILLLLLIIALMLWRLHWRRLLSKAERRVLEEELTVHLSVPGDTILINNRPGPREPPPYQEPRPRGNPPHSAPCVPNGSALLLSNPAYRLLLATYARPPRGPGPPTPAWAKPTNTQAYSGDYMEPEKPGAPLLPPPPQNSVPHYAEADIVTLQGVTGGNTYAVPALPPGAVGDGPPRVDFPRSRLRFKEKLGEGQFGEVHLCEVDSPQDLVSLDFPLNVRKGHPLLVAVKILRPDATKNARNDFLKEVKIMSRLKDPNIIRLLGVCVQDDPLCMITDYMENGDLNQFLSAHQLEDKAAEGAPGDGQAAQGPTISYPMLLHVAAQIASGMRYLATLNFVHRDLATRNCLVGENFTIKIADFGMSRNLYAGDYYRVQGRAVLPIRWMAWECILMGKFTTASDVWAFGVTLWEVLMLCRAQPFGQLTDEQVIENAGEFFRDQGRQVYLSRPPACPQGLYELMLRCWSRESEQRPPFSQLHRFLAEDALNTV
Sequence of SRSF protein kinase 2 (Homo sapiens) (P78362 whole entry, looked up): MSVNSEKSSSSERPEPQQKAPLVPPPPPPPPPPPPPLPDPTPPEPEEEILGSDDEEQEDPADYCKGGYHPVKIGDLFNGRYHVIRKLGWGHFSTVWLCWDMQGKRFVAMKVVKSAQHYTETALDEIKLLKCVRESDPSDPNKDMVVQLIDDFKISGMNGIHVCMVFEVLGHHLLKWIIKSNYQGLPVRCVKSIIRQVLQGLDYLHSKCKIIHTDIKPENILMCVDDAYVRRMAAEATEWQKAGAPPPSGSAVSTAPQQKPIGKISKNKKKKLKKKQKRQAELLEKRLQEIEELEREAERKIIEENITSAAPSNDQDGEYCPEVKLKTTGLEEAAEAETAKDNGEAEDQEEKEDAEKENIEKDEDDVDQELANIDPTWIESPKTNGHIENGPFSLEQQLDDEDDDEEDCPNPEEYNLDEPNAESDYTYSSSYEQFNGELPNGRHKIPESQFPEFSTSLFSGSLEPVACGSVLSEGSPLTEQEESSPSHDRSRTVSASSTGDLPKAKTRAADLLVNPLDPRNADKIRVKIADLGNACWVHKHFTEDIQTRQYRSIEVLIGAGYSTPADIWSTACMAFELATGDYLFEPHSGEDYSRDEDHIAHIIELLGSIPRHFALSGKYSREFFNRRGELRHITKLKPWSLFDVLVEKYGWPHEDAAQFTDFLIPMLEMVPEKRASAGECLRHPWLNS
Sequence of Mitogen-activated protein kinase 14 (Homo sapiens) (Q16539 whole entry): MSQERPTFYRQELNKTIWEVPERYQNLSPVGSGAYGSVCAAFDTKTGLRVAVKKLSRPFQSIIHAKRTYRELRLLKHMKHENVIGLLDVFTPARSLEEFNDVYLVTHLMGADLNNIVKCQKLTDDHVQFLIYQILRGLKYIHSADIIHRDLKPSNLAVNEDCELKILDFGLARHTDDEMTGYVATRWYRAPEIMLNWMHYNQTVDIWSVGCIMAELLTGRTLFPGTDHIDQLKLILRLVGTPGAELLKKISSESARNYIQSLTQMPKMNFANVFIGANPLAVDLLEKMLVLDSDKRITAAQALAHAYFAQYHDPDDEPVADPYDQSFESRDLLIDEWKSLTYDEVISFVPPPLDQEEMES

As to `CS(=O)(=O)N1CCCC(NC(=O)[C@H](CCC2CCCCC2)NC(=O)c2ccc(CNC(=O)c3cnc4ccccn34)cc2)C1` (some centres undefined), the LogIC50 in test [1] is -8; in test [2], -8; in test [3] it was -7; in test [4], -7. In addition, the figures for the ΔTm in test [5] and in [6] were -0.163 c and -0.0946 c, respectively.

With `O=C(NCCCN1CCOC1=O)c1cnc(NCc2cc(Br)ccc2Br)nc1NC1CCCC1`, the LogIC50 in test [7] is -7. This compound showed an IC50 in test [8] of 80 nM. Moreover, the ΔTm in [5] and in test [6] was 0 c each time.

On to `CN(c1ncccc1CNc1ccnc(-c2nc3c(F)c(Cl)ccc3[nH]2)n1)S(C)(=O)=O`, for which the ΔTm was -1.19 c in [9] and 0.31 c in [6]. For the same compound, the LogIC50 in test [10] and in test [11] was -7 each time.
